Measured values: US4954485A, “2',3'-dideoxy-4-thio-uridine derivatives, process for their preparation and antivirus agents using them” (priority 1987, dated 1990)
pEC50: −log10 of the molar value. Like-named read-outs stand apart in the source and are kept apart here.

Tests used:
Type in all cases: cell-based
[1] = system: Moloney-murine leukemia virus, RSV, HIV; test: Antivirus effect, summary of Table 1 through 3; conditions: as shown in Table 1 through 3
Protocol: (§1) The antivirus effect of the compound of general formula [II']of the invention was ascertained according to the test method by Rowe et al (J. W. Virology 1970, 42, 1136).
(§2) Virus: Moloney-murine leukemia virus.
(§3) Employing cultured cells of the first generation (chick embryo fibroblast),RSV was infected for about 30 minutes. To this were added the samples diluted stepwise, and, after 4 to 7 days, which stage the transformation of cells due to RSV infection was inhibited at was judged under microscope.
(§4) Employing MT-4 cells, HIV was infected for 1 hour at 37° C. To this were added the samples diluted stepwise, and, after 3 days, which stage the transformation of cells due to HIV infection was inhibited at was judged under microscope.

Rous sarcoma virus (RSV) = test: Effect on Rous sarcoma virus (RSV): inhibition of transformation of chick embryo fibroblast, Table 2; conditions: 4TO7, RSV infected about 30 minutes, judged under microscope after 4 to 7 days, concentration at which transformation was inhibited, read-out: Antivirus effect (on RSV), Concentration
Protocol: as §3, with “EXAMPLE 2. EFFECT ON ROUS SARCOMA VIRUS (RSV) Employing” for “Employing”

[2] = system: HIV (human immunodeficiency virus); test: Effect on HIV: inhibition of transformation of MT-4 cells due to HIV infection, Table 3; conditions: Human immunodeficiency virus 1, MT4, 72 h, HIV infected 1 hour at 37° C, judged under microscope after 3 days, concentration at which transformation was inhibited, read-out: Antivirus effect (on HIV), Concentration
Protocol: EFFECT ON HIV (HUMAN IMMUNODEFICIENCY VIRUS)
as §4

[3] = system: Moloney-murine leukemia virus; test: Antivirus effect on Moloney-murine leukemia virus in SC-1 cells (method of Rowe et al), Table 1
Text: as §1, §2

[4] = Moloney-murine leukemia virus, SC-1 cells, read-out: ED50 (the source's name)

pEC50 [3, 4] | SMILES | antivirus effect compared with DDC [1] | minimal effective concentration (Rous sarcoma virus (RSV)) | minimal effective concentration [2] | pEC50 ([3]; SC-1, read-out: ED50)
5.43 | O=c1[nH]c(=S)ccn1[C@H]1CC[C@@H](CO)O1 [Compound of invention, 2',3'-dideoxy-4-thio-uridine] | excellent antivirus effect similar to that of DDC | 5 to 10 µg/mL | 10 µg/mL | –
– | Cc1cn([C@H]2C[C@H](N=[N+]=[N-])[C@@H](CO)O2)c(=O)[nH]c1=O [AZT, 3Azido-3deoxy-thymidine] | – | – | – | 7.70
5.40 | Nc1ccn([C@H]2CC[C@@H](CO)O2)c(=O)n1 [DDC, 2',3Dideoxy-cytidine] | – | 0.5 to 1 µg/mL | 1 µg/mL | –
